Experimental data from paper PMC5481443, “High-throughput Screening of Small Molecule Inhibitors of the Streptococcus Quorum-sensing Signal Pathway” (Scientific Reports, 2017).

Experiments:
MuPEP1 (S. mutans PEP) = MuPEP1 (S. mutans PEP) (Streptococcus mutans, UniProt Q8DW05); test: MuPEP1 peptidase inhibition assay with fluorogenic substrate tCComC-AFC; assay type: biochemical
Method: This region of ComC is necessary and sufficient for the interaction with PEP[17]. […] Thus, this synthetic peptide was used as a functionally relevant substrate. Assays were performed in black flat-bottom 384-well plates (Greinar, 784900) under ambient conditions. All compounds dissolved in DMSO were predispensed on the plate (100 nL/well) with the final concentration of 20 μM, and then aliquots of 5 μL of 0.5 μM MuPEP1 (final concentration) in 50 mM Tris-HCl, 150 mM ammonium sulfate, and 0.02% Triton X-100 were dispensed to each well by using a Multidrop Combi dispenser (Thermo Fisher Scientific, Vantaa, Finland). […] These reaction mixtures contained DMSO at a 3% final concentration. Each 384-well plate contained 16 negative control wells (lacking MuPEP1) and 16 positive control wells (100 nL of DMSO replacing 100 nL of compound in DMSO). After 3-h incubation, the fluorescence intensity of the released AFC was measured by using a microplate reader, PHERAstar (BMG Labtech, Offenburg, Germany), with excitation at 380 nm and emission at 490 nm.
Fifteen microliters of 3.3 mM of phosphoric acid was added to 8 μL of the reaction mixtures from the screening. […] The fluorescence was detected by using excitation at 360 nm and emission at 470 nm.
Dose-dependent inhibitory activities of compounds against MuPEP1 were examined in quadruplicate. […]

[1] = system: S. mutans biofilm formation; test: Biofilm formation assay (crystal violet staining; tilted tube culture); assay type: cell-based, S. mutans strain UA159
Method: After 18 h of standing incubation at 37 °C in 5% CO2 under anaerobic condition in an AnaeroPack system (Mitsubishi Gas Chemical, Tokyo, Japan), the cultured medium was removed, and adherent bacteria were stained with 200 μL of 0.005% crystal violet for 30 min. […] The dye was extracted into 200 μL of 60% ethanol, and the biofilm mass was estimated by using a microplate reader (Bio-Rad, Model 680XR) (Bio-Rad, Hercules, CA) to measure the absorbance at 595 nm. […]

S. mutans = test: Bacterial growth / viable cell count; assay type: cell-based, S. mutans strain UA159; conditions: 25 μM compound, tube culture
Method: […] After 18 h of standing incubation at 37 °C in 5% CO2 under anaerobic condition in an AnaeroPack system (Mitsubishi Gas Chemical, Tokyo, Japan), the cultured medium was removed, and adherent bacteria were stained with 200 μL of 0.005% crystal violet for 30 min. The wells were washed twice with 300 μL of distilled water and then air dried. The dye was extracted into 200 μL of 60% ethanol, and the biofilm mass was estimated by using a microplate reader (Bio-Rad, Model 680XR) (Bio-Rad, Hercules, CA) to measure the absorbance at 595 nm. The bacterial growth was determined by measuring the turbidity (absorbance at 595 nm) of parallel wells.
For the count of viable cells shown in Fig. 2B, part of the culture was serially diluted and spread onto the BHI plate, and the plates were incubated overnight at 37 °C in 5% CO2 under anaerobic condition.

[2] = system: S. mutans competence development; test: Transformation assay (competence development); assay type: cell-based; conditions: 10 μM compound
Method: Four microliters of the overnight culture of S. mutans in BHI medium was inoculated to 0.4 mL of CDM in the absence or presence of 10 µM Compound 1. After 7.5 h incubation at 37 °C in 5% CO2 under anaerobic condition in the AnaeroPack system, 1 μg of plasmid pSET2 was added to the culture. After additional 3-h growth, the cultures were chilled on ice, and serial dilutions of the cultures were plated onto BHI agar plates (for enumeration of total CFU) and onto BHI agar plates containing 1 mg/mL spectinomycin (for enumeration of transformants). Transformation efficiency was determined after 24–48 h incubation at 37 °C in 5% CO2 under anaerobic condition.

[3] = system: nlmA and nlmC gene expression of S. mutans; test: Real-time quantitative RT-PCR of bacteriocin genes; assay type: cell-based; conditions: 25 μM compound
Method: Six microliters of the overnight culture of S. mutans in BHI medium was inoculated into 0.4 mL of CDM. After 17 h of incubation at 37 °C in 5% CO2 under anaerobic condition in an AnaeroPack system, cells were collected by centrifugation and treated with labiase (Cosmo Bio, Tokyo, Japan), and total RNA was extracted and purified by using a PureLink™ RNA Mini kit (Ambion, Austin, TX). Purified RNA was reverse transcribed to cDNA by using SuperScript® VILO™ cDNA Synthesis kit. Quantitative real-time PCR was performed by using a Power SYBR® Green PCR Master Mix (Applied Biosystems, Foster City, CA) on a StepOnePlus Real–Time PCR system (Applied Biosystems). The gene expression levels were calculated by using the ΔΔ threshold cycle (ΔΔC T) method. The 16S rRNA gene of S. mutans was used as the housekeeping reference. The oligonucleotides to amplify each gene were as follows: 5′-[…]-3′ and 5′-[…]-3′ for 16S rRNA, 5′-[…]-3′ and 5′-[…]-3′ for nlmA (SMU. 150), and 5′-[…]-3′ and 5′-[…]-3′ for nlmC (SMU. 1914C). All experiments using commercially available kits were performed according to the manufacturer’s instructions.

MuPEP1 = MuPEP1 (Streptococcus mutans, UniProt Q8DW05); test: Kinetic analysis of MuPEP1 peptidase activity
MuPEP1, sequence (Q8DW05 entry or part of it): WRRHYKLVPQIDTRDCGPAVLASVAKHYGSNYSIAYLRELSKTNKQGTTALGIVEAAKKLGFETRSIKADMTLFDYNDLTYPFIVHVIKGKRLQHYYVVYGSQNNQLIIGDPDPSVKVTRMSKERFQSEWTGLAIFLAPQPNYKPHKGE
Method: (§1) The PEP activity was assayed in a 110-μL reaction mixture containing 50 mM Tris-HCl, 150 mM ammonium sulfate, 0.02% Triton X-100, and various concentrations of the substrate. The reaction was started by adding the PEP solution to a final concentration of 0.25–2.0 μM. The reaction was performed at 25 °C, 50 μL of the reaction mixture was transferred to a white 96-well microtiter plate (Thermo Scientific 236105), and the fluorescence intensity was immediately measured by using a Promega GloMax®-Multi plus Detection System (Promega, Madison, WI) with excitation at 405 nm and emission at 495–505 nm.
(§2) Supplementary Figure S1: v/[E] versus substrate concentration plots for the PEP […]
(§3) The data were fitted with a saturation curve with the
(§4) Tris-HCl, 150 mM ammonium sulfate, and Triton X-100, pH 7.0, at 25 °C. The concentrations of Triton X-100 were 0.01% for MuPEP1 and 0.02% for S. pneumoniae PEP. The concentrations of PEP or the peptidase domain of BlpA were […]
(1 picture or pasted object on this page, not shown here)

S. pneumoniae PEP = target: T1, S. pneumoniae PEP (Streptococcus pneumoniae serotype 4, UniProt Q03727); test: S. pneumoniae PEP peptidase assay with tCComC-AFC; assay type: biochemical
T1 construct: His-tag; made in house; host or cells: E. coli BL21 (DE3) pLysS
T1 sequence (Q03727 11-138): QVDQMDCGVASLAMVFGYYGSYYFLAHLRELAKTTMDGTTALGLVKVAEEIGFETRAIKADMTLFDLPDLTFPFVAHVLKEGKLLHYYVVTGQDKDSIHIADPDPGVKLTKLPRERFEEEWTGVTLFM
Method: as §1, with “nm. […]” for “nm.”
as §4
(§5) domain of S. pneumoniae BlpA with Compound 1. […]
(§6) was digested with 0.5 μM PEP or the peptidase domain of BlpA in the presence of […]

S. oralis PEP = S. oralis PEP (Streptococcus oralis, UniProt A0A1X1IJV1); test: S. oralis PEP peptidase assay with tCComC-AFC
S. oralis PEP, sequence (A0A1X1IJV1 entry or part of it): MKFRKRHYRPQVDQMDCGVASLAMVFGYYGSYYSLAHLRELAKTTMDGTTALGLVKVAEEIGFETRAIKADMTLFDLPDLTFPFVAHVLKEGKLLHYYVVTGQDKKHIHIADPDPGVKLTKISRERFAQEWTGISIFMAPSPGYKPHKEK
Method: as §1
Supplementary Figure S1: v/[E] versus substrate concentration plots for the PEP
as §3
Tris-HCl, 150 mM ammonium sulfate, and Triton X-100, pH 7.0, at 25 °C. The
concentrations of Triton X-100 were 0.01% for MuPEP1 and 0.02% for S.
pneumoniae PEP. […]

[4] = target: peptidase domain of S. pneumoniae BlpA (Streptococcus pneumoniae, UniProt G3ECC8); test: BlpA peptidase domain assay with tCComC-AFC
peptidase domain of S. pneumoniae BlpA, sequence (G3ECC8 entry or part of it): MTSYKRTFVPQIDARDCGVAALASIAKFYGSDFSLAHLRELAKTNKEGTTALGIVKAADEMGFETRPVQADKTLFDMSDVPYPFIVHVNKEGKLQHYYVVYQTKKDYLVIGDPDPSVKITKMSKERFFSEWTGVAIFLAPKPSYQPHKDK
Method: as §1, §2, §3, §4
(1 picture or pasted object on this page, not shown here) […]
as §5, §6

[5] = system: CC(C)C[C@H](NC(=O)[C@H](CCC(=O)O)NC(=O)[C@H](CCCCN)NC(=O)[C@H](CCC(=O)O)NC(=O)[C@H](CC(N)=O)NC(=O)[C@H](CC(C)C)NC(=O)[C@@H](NC(=O)[C@@H]1CCCN1C(=O)[C@H](Cc1ccccc1)NC(=O)[C@H](CCC(N)=O)NC(=O)[C@H](C)N)C(C)C)C(=O)N[C@@H](CCCCN)C(=O)N[C@@H](CCC(=O)O)C(=O)N[C@H](C(=O)N[C@@H](CC(C)C)C(=O)NCC(=O)NCC(=O)Nc1ccc2c(C(F)(F)F)cc(=O)oc2c1)C(C)C; test: purified protein, by the assay type
[6] = other: MuPEP1, non-competitive inhibition model fit, Fig. 2E, pH 7.0, 25.0 °C
[7] = other: saturation curve, pH 7.0, 25 °C, Fig. S1

MuPEP1 (S. mutans PEP), sequence (Q8DW05 entry or part of it): as the sequence (Q8DW05 entry or part of it) above

CCCNC(=O)OCC1CC2CCN1CC2C#Cc1ccccc1 (centres unmarked) [Compound 1]
IC50 (MuPEP1 (S. mutans PEP)): 38 µM
Biofilm in standing culture in tilted round-bottom culture tubes ([1]; 25 μM compound, overnight standing culture): easily detached and dispersed after gentle swirling
EC50 ([1]; Streptococcus mutans, S. mutans, crystal violet staining, 96-well plate, 18 h, read-out: EC50 of suppression of biofilm formation): 5 µM
Antimicrobial activity against S. mutans (S. mutans): did not show antimicrobial activity
Transformation efficiency relative to absence of compound [2]: 35%
Relative gene expression level of nlmA [3]: 18%
Relative gene expression level of nlmC [3]: 23%
Ki (MuPEP1): 38 µM
Inhibition mechanism (MuPEP1; Vmax decreased, Km unaffected): non-competitively inhibited
IC50 (S. pneumoniae PEP): 29 µM
IC50 (S. oralis PEP): 25 µM
IC50 [4]: 16 µM

MuPEP1 (Streptococcus mutans UA159)
Km [5, 6]: 43 µM
kcat [5, 6]: 0.00333 s⁻¹
Km [5, 7]: 46 µM
kcat [5, 7]: 0.00317 s⁻¹

S. oralis PEP (Streptococcus oralis subsp. oralis)
Km [5, 7]: 8.2 µM
kcat [5, 7]: 0.00123 s⁻¹

peptidase domain of S. pneumoniae BlpA (Streptococcus pneumoniae)
Km [5, 7]: 18 µM
kcat [5, 7]: 0.011 s⁻¹
